Data reported in US9233965B2, “3,4-dihydropyrrolo[1,2-A]pyrazine-2,8(1H)-dicarboxamide derivatives, preparation thereof and therapeutic use thereof for diseases involving casein kinase 1 epsilon and/or casein kinase 1 delta” (SANOFI, priority 2010, dated 2016).
Where “and” joins values, the source holds several entries; their conditions need not be identical. Identical values can stand only once.

What was measured:
[1] = target: casein kinase 1 epsilon (CK1 epsilon) (Homo sapiens (Human), UniProt P49674); test: Test A: inhibitory activity on CK1 epsilon, casein phosphorylation assay on ATP-33P filter plate; type: biochemical; settings: IC50 values or IC50 ranges (result of several experiments), ATP 10 μM final
casein kinase 1 epsilon (CK1 epsilon), sequence (P49674 whole entry): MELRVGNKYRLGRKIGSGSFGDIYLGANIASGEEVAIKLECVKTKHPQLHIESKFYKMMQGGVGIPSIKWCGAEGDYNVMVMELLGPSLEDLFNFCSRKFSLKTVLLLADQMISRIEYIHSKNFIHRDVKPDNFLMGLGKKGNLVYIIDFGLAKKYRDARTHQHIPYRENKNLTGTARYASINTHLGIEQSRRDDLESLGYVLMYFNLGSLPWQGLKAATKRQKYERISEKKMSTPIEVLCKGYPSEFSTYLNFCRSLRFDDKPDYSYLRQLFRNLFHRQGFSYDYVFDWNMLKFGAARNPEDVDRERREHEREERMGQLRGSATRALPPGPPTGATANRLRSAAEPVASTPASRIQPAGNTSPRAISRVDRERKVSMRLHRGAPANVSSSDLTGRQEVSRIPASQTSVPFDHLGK
Procedure, shortened: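 Human CK1 epsilon (3 ng/μL final) phosphorylates dephosphorylated casein (0.2 μg/μL) with ATP-33P plus 10 μM cold ATP (KM for ATP 21 μM), 2 h at room temperature, pH 7.5 Tris buffer. TCA-precipitated protein counted by scintillation; compounds at 10 to 0.001 μM give IC50 values or % inhibition at 10 μM.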

[2] = tested on: Mper1-luc Rat-1 (P2C4) fibroblasts; test: Test C: circadian cell assay, mPer1-luciferase reporter period analysis; type: cell-based; settings: effective concentration that induces a 1-hour prolongation of the circadian period; values or ranges from several experiments
Protocol: Test C: Experimental Protocol for Circadian Cell Assay
Mper1-luc Rat-1 (P2C4) fibroblast cultures were prepared by dividing the cultures every 3-4 days (about 10-20% of confluence) on 150 cm^2 degassed polystyrene tissue culture flasks (Falcon® #35-5001) and maintained in growth medium [EMEM (Cellgro #10-010-CV); 10% foetal bovine serum (FBS; Gibco #16000-044); and 50 I.U./mL of penicillin-streptomycin (Cellgro #30-001-Cl)] at 37° C. and under 5% CO2.
Cells obtained from Rat-1 fibroblast cultures at 30-50% of confluence as described above were co-transfected with vectors containing the selection marker for resistance to zeocin for a stable transfection and a luciferase reporter gene directed by the promoter mPer-1. After 24 to 48 hours, the cultures were divided on 96-well plates and maintained in growth medium supplemented with 50-100 μg/mL of zeocin (Invitrogen® #45-0430) for 10-14 days. The zeocin-resistant stable transfectants were evaluated for expression of the reporter by adding to the growth medium luciferin 100 μM (Promega® #E1603®) and by assaying the luciferase activity on a TopCount® scintillation counter (Packard model #C384V00). The Rat-1 cell clones expressing both zeocin resistance and luciferase activity directed by mPer1 were serum-shock-synchronized with 50% horse serum [HS (Gibco® #16050-122)] and the activity of the circadian reporter was evaluated. The P2C4 clone of fibroblasts Mper1-luc Rat-1 was selected to test the compound.
The Mper1-luc Rat-1 (P2C4) fibroblasts at 40-50% of confluence obtained according to the protocol described above were plated out onto 96-well opaque tissue culture plates (Perkin Elmer® #6005680). The cultures are maintained in growth medium supplemented with 100 μg/mL of zeocin (Invitrogen #45-0430) until they reached 100% of confluence (48-72 hours). The cultures were then synchronized with 100 μL of synchronization medium [EMEM (Cellgro #10-010-CV); 100 I.U./mL of penicillin-streptomycin (Cellgro #30-001-C1); 50% HS (Gibco #16050-122)] for 2 hours at 37° C. and under 5% CO2. After synchronization, the cultures were rinsed with 100 μL of EMEM (Cellgro #10-010-CV) for 10 minutes at room temperature. […]
The period analysis was performed either by determining the interval between the relative light emission minima over several days or by Fourier transform. […] The data were analysed by adjusting a hyperbolic curve to the data expressed as change of period (y-axis) as a function of the concentration of the test compound (x-axis) in the XLfit™ software and the EC Delta (t+1 h) was interpolated from this curve. […]

[3] = target: human CK1 delta (Homo sapiens (Human), UniProt P48730); test: Test B: inhibitory activity on CK1 delta measured by FRET (Z'Lyte kinase assay kit); type: biochemical; settings: substrate peptide SER/THR 11 2 μM, ATP 4 times the KM
human CK1 delta, sequence (P48730 whole entry): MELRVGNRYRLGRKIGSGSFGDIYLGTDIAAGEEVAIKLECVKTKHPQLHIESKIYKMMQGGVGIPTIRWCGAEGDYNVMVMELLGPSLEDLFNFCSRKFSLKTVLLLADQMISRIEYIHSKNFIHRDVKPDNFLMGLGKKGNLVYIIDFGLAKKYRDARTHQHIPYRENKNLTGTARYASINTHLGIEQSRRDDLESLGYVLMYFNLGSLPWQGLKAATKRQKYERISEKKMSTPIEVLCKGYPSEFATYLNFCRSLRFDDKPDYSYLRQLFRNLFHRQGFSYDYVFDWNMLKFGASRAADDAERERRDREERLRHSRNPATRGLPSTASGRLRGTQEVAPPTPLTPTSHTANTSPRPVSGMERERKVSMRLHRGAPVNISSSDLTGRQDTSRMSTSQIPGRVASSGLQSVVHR
From the text: Test B: Inhibitory Activity on CK1 Delta Measured by FRET
The capacity of the compounds of the invention to inhibit the phosphorylation of casein by the casein kinases 1 epsilon and delta may be evaluated using an FRET (Fluorescence Resonance Energy Transfer) fluorescence test with the aid of the “Z'Lyte™ kinase assay kit” (reference PV3670; Invitrogen Corporation™) according to the manufacturer's instructions.
The casein kinases 1 used are obtained from Invitrogen Corporation (human CK1 epsilon PV3500 and human CK1 delta PV3665).
A peptide substrate labelled at both ends with a fluorophore-donating group (coumarin) and a fluorophore-accepting group (fluorescein) constituting an FRET system is […] in the presence of ATP by casein kinase 1 epsilon or delta in the presence of increasing concentrations of compounds of the invention.
The mixture is treated with a site-specific protease that specifically cleaves the substrate peptide to form two fluorescent fragments having a large fluorescence emission ratio.
The fluorescence observed is thus related to the capacity of the products of the invention to inhibit the phosphorylation of the substrate peptide by casein kinase 1 epsilon or casein kinase 1 delta. […]
The emitted fluorescence is measured at wavelengths of 445 and 520 nm (excitation at 400 nm). […]

## Cc1c(-c2ccccc2)c(C(N)=O)c2n1CCN(C(=O)NC(C)(C)C)C2 [Compound 3, N^2-tert-butyl-6-methyl-7-phenyl-3,4-dihydropyrrolo[1,2-a]pyrazine-2,8(1H)-dicarboxamide]
[1]
  IC50: 5 to 104 nM
[2]
  CE Delta (t + 1 h): 8 nM

## CC(C)(C)NC(=O)N1CCn2c(c(C(N)=O)c(-c3ccc4ccccc4c3)c2C2CC2)C1 [Compound 25, N^2-tert-butyl-6-cyclo-propyl-7-(naphthalen-2-yl)-3,4-dihydropyrrolo[1,2-a]pyrazine-2,8(1H)-dicarboxamide]
[1]
  IC50: 33 nM
[2]
  CE Delta (t + 1 h): 26 nM

## CC(C)(C)NC(=O)N1CCn2c(Cl)c(-c3ccccc3)c(C(N)=O)c2C1 [Compound 60, N^2-tert-butyl-6-chloro-7-phenyl-3,4-dihydropyrrolo[1,2-a]pyrazine-2,8(1H)-dicarboxamide]
[1]
  IC50: 1 to 12 nM
[2]
  CE Delta (t + 1 h): 3 to 20 nM
other
  melting point: 197 to 199 °C and 192 to 195 °C

## CC(C)(C)NC(=O)N1CCn2c(c(C(N)=O)c(-c3ccccc3)c2C2CC2)C1 [Compound 10, N^2-tert-butyl-6-cyclo-propyl-7-phenyl-3,4-dihydropyrrolo[1,2-a]pyrazine-2,8(1H)-dicarboxamide]
[1]
  IC50: 15 to 77 nM
[3]
  IC50: 31 nM

## NC(=O)c1c(-c2ccccc2)c(C2CC2)n2c1CN(C(=O)NC13CC4CC(CC(C4)C1)C3)CC2 [Compound 54, N^2-(adamantan-1-yl)-6-cyclo-propyl-7-phenyl-3,4-dihydropyrrolo[1,2-a]pyrazine-2,8(1H)-dicarboxamide]
[1]
  IC50: 6 nM
[2]
  CE Delta (t + 1 h): 15 nM

## NC(=O)c1c(-c2cccc(F)c2)c(Cl)n2c1CN(C(=O)NC1CCOCC1)CC2 [Compound 98, 6-chloro-7-(3-fluorophenyl)-N^2-(tetrahydro-2H-pyran-4-yl)-3,4-dihydropyrrolo[1,2-a]pyrazine-2,8(1H)-dicarboxamide]
[1]
  IC50: 2 to 16 nM
other
  melting point: 223 to 225 °C

## NC(=O)c1c(-c2cccc(F)c2)c(Cl)n2c1CN(C(=O)NCC1(CO)CC1)CC2 [Compound 75, 6-chloro-7-(3-fluorophenyl)-N^2-{[1-(hydroxymethyl)cyclo-propyl]methyl}-3,4-dihydropyrrolo[1,2-a]pyrazine-2,8(1H)-dicarboxamide]
[1]
  IC50: 4 to 5 nM
other
  melting point: 204 to 206 °C

## NC(=O)c1c(-c2ccccc2)c(Cl)n2c1CN(C(=O)NC1CCOCC1)CC2 [Compound 93, 6-chloro-7-phenyl-N^2-(tetrahydro-2H-pyran-4-yl)-3,4-dihydropyrrolo[1,2-a]pyrazine-2,8(1H)-dicarboxamide]
[1]
  IC50: 21 to 28 nM
other
  melting point: 227 to 229 °C

## Cc1cccc(-c2c(C(N)=O)c3n(c2Cl)CCN(C(=O)NC(C)(C)C)C3)c1 [Compound 61, N^2-tert-butyl-6-chloro-7-(3-methylphenyl)-3,4-dihydropyrrolo[1,2-a]pyrazine-2,8(1H)-dicarboxamide]
[1]
  IC50: 1 to 8 nM
other
  melting point: 196 to 197 °C
